Measured values from paper PMC7195871 (ACS synthetic biology, 2018).

Legend:
[1] = biological target: T1, PCM-F (pivalyl-CoA mutase fusion protein) (Xanthobacter versatilis, UniProt A7IQE5+A7IQE6); experiment: mutase conversion assay in crude E. coli lysate; type: biochemical; details: vitamin B12-dependent mutase; without G-protein chaperone
T1 sequence (A7IQE5 1-559): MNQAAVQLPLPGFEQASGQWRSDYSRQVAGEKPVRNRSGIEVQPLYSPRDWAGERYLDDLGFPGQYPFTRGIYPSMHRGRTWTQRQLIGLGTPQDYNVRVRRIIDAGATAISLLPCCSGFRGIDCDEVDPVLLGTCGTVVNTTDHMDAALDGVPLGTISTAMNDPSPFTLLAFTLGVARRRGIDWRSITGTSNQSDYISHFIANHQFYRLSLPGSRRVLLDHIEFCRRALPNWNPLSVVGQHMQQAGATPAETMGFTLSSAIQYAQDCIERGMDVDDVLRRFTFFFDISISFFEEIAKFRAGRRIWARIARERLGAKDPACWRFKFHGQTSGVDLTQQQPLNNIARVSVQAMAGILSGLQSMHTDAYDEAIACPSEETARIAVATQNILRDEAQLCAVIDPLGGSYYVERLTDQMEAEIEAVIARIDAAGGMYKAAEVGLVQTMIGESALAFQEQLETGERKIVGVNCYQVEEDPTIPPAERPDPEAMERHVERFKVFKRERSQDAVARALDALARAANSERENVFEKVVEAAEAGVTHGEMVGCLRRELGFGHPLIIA
T1 sequence (A7IQE6 1-148): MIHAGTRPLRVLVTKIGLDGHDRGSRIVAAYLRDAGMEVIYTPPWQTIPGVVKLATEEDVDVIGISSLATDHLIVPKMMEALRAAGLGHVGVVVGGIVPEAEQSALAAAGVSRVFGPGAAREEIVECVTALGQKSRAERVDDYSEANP

Ralstonia sp. ADH = biological target: T2, Ralstonia sp. ADH (Ralstonia sp. DSMZ 6428, UniProt C0IR58); experiment: alcohol dehydrogenase assay, aldehyde reduction; type: biochemical; details: reduction of pivaldehyde to pivalcohol
T2 sequence (C0IR58 1-249): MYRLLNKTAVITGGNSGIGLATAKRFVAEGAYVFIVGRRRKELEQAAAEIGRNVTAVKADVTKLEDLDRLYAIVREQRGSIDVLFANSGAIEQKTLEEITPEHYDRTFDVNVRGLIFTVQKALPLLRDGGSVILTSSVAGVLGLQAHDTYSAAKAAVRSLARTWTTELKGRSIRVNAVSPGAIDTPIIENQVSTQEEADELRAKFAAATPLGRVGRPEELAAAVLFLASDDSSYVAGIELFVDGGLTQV

Row | Structure (SMILES) | mutase conversion assay in crude E. coli lysate [1] | alcohol dehydrogenase assay, aldehyde reduction (Ralstonia sp. ADH)
1 | CC(C)CC(=O)SCCNC(=O)CCNC(=O)[C@H](O)C(C)(C)COP(=O)(O)OP(=O)(O)OC[C@H]1O[C@@H](n2cnc3c(N)ncnc32)[C@H](O)[C@@H]1OP(=O)(O)O [isovaleryl-CoA] | significant activity in converting isovaleryl-CoA to pivalyl-CoA in crude cell lysates | –
2 | CC(C)(C)C=O [pivaldehyde] | – | Ralstonia sp. ADH showed the highest activity toward pivaldehyde
3 | CC(C)(C)C(=O)SCCNC(=O)CCNC(=O)[C@H](O)C(C)(C)COP(=O)(O)OP(=O)(O)OC[C@H]1O[C@@H](n2cnc3c(N)ncnc32)[C@H](O)[C@@H]1OP(=O)(O)O [pivalyl-CoA] | significant activity in converting isovaleryl-CoA to pivalyl-CoA in crude cell lysates | –
